Test results from US5993889A, “Trehalose phosphorylase, its preparation and use” (Kabushiki Kaisha Hayashibara Seibutsu Kagaku Kenkyujo, priority 1996, dated 1999).

T1: trehalose phosphorylase (Thermoanaerobacter brockii, UniProt Q8L164)
T1 construct: recombinant E. coli enzyme (pTTP4) equivalent
T1 sequence (Q8L164 2-774): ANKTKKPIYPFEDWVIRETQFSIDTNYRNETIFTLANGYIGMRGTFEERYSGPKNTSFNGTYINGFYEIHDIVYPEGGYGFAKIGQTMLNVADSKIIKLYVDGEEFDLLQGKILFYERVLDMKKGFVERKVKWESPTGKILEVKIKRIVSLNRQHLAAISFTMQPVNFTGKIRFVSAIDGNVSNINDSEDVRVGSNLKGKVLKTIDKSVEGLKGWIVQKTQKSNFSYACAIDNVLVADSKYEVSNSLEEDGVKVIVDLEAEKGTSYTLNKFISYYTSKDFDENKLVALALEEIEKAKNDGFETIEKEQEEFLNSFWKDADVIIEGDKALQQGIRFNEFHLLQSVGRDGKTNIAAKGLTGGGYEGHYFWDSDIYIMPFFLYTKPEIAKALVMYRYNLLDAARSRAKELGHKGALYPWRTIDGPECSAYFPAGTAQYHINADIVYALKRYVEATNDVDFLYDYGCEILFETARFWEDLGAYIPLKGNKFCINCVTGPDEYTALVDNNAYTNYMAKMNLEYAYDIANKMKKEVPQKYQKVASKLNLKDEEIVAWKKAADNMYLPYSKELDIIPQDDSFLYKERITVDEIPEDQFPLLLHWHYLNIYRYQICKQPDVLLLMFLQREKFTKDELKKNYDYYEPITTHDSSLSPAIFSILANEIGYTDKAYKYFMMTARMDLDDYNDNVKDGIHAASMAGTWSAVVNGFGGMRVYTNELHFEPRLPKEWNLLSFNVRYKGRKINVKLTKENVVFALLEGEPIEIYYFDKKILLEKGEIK


Legend:
trehalose phosphorylase [1] = biological target: T1, trehalose phosphorylase; assay: Trehalose phosphorylase activity assay: inhibition and activation by added substances; assay type: biochemical, Thermoanaerobium brockii; conditions: one mM
Description: (§1) The present trehalose phosphorylase activity is assayed as follows: Add 0.2 ml of an enzyme solution to 2 ml of 20 mM phosphate buffer (pH 7.0) containing 1.0 w/v % trehalose as a substrate, incubate the solution at 60° C. for 30 min, sample the reaction mixture in an amount of 0.5 ml, and incubate the sample at 100° C. for 10 min to suspend the enzymatic reaction. Add 0.5 ml of D-glucose oxidase/peroxidase reagent to the heated sample, stir the mixture, keep the mixture at 40° C. for 30 min, add 2.5 ml of 5-N hydrochloric acid, stir the resulting mixture, and measure the absorbance of the mixture at a wavelength of 525 nm. One unit of the enzyme activity is defined as the enzyme that forms one […] of D-glucose per one minute. The activity of maltose- and kojibiose-phosphorylases can be assayed similarly as the same assay as indicated above except that the trehalose as a substrate is respectively replaced with maltose and kojibiose.
Influences of temperatures and pHs on the present trehalose phosphorylase activity were studied in accordance with the assay for enzyme activity. To study the influence of temperatures, the enzyme was reacted at temperatures of about 50-85° C. in place of 60° C. as used in the enzyme assay. In the case of studying the influence of pHs, the enzyme was reacted at pHs of about 4-9 in place of the buffer's pH as used in the assay for the enzyme activity. In both cases, the enzymatic reactions were suspended similarly as in the enzyme assay, followed by quantifying the formed glucose. […] The thermal stability of the enzyme was determined by incubating the enzyme dissolved in 10 mM phosphate buffer (pH 7.0) at a temperature of about 40-85° C. for one hour, cooling the incubated enzyme, and assaying for the residual enzyme activity according to the enzyme assay. The pH stability of the enzyme was determined by dissolving the enzyme in buffers with different pHs of about 4-10, keeping each enzyme solution at 4° C. for 24 hours, adjusting each solution to give a pH of 7.0, and assaying for the residual enzyme activity according to the enzyme assay. […] The enzyme activity was inhibited by one mM Cu^++, Pb^++, Zn^++, Hg^++, Mg^++, or Mn^++.

trehalose phosphorylase [2] = biological target: T1, trehalose phosphorylase; assay: Substrate specificity for saccharide-hydrolyzing reaction by trehalose phosphorylase (TLC); assay type: biochemical, Thermoanaerobium brockii; design: key: +: Hydrolyzed by the action of the present trehalose phosphorylase.; -: Not hydrolyzed by the action of the present trehalose phosphorylase; conditions: saccharide 2 w/v %, 10 units/g saccharide purified enzyme, 5 mM disodium hydrogenphosphate, 60° C., pH 7.0, 24 hours
Description: An aqueous solution of a saccharide selected from D-glucose, maltose, sucrose, lactose, trehalose, neotrehalose, cellobiose, melibiose, kojibiose, isomaltose, sophorose, gentibiose, nigerose, laminaribiose, maltopentaose, and 4-O-α-D-glucosyltrehalose was mixed with 10 units/g saccharide, d.s.b., of a purified trehalose phosphorylase obtained by the method in Experiment 2, and incubated in the presence of 5 mM disodium hydrogenphosphate at 60° C. and pH 7.0 for 24 hours. The saccharide concentration of each reaction solution was 2 w/v %. Pre-reaction solutions and post-reaction mixtures were subjected to thin layer chromatography (hereinafter abbreviated as "TLC") using "KIESELGEL 60 (20×20 cm)", an aluminum plate for TLC commercialized by Merck & Co., Inc., Rahway, USA. Samples were developed once at ambient temperature on the plate using 1-butanol/pyridine/water (=7:3:1 by volume) as a developing solvent system, and the plate was sprayed with 20 v/v % sulfuric acid/methanol solution, and heated at 110° C. for about 10 min for coloration. Comparing spots of the solutions and mixtures detected on the plates, it was checked whether the enzyme acted on the saccharides.

trehalose phosphorylase [3] = biological target: T1, trehalose phosphorylase; assay: Specificity to acceptor in glucosyl-transferring saccharide-forming reaction by trehalose phosphorylase (TLC); assay type: biochemical, Thermoanaerobium brockii; conditions: used as donor in place of β-D-glucose-1-phosphoric acid
Description: An aqueous solution, which dissolved in an equal amount, by dry weight, […], […] obtained by the method in Experiment 2, and enzymatically reacted at 60° C. and pH 7.0 for 24 hours. Similarly as in Experiment 5, the pre-reaction solutions and the post-reaction mixtures were subjected to TLC, followed by coloring the plates. Comparing spots of the samples of the solutions and mixtures detected on the plates, it was judged whether transferred saccharides were formed based on newly detected spots of the post reaction mixtures. By macroscopically observing the coloration degree of the newly detected spots, the yield of the transferred saccharides was relatively evaluated.

[4] = Trehalose phosphorylase activity assay (specific activity, influence of temperature and pH); assay type: biochemical
Description: as §1
The yield of the purified enzyme specimen, obtained by the above purification steps, was about 25% with respect to the enzyme activity of the supernatant of the disrupted cell suspension. […] Protein was quantified according to the Lowry method using calf serum albumin as a standard protein.
(§2) Influences of temperatures and pHs on the present trehalose phosphorylase activity were studied in accordance with the assay for enzyme activity. […] In both cases, the enzymatic reactions were suspended similarly as in the enzyme assay, followed by quantifying the formed glucose. […] The thermal stability of the enzyme was determined by incubating the enzyme dissolved in 10 mM phosphate buffer (pH 7.0) at a temperature of about 40-85° C. for one hour, cooling the incubated enzyme, and assaying for the residual enzyme activity according to the enzyme assay. The pH stability of the enzyme was determined by dissolving the enzyme in buffers with different pHs of about 4-10, keeping each enzyme solution at 4° C. for 24 hours, adjusting each solution to give a pH of 7.0, and assaying for the residual enzyme activity according to the enzyme assay. […]

[5] = Thermal and pH stability of trehalose phosphorylase (residual enzyme activity); assay type: physicochemical
Description: as §1, with “The activity of maltose- and kojibiose-phosphorylases can be assayed similarly as the same assay as indicated above except that the trehalose as a substrate is respectively replaced with maltose and kojibiose.” left out
as §2, with “assay.” for “assay. The pH stability of the enzyme was determined by dissolving the enzyme in buffers with different pHs of about 4-10, keeping each enzyme solution at 4° C. for 24 hours, adjusting each solution to give a pH of 7.0, and assaying for the residual enzyme activity according to the enzyme assay.”

[6] = Isoelectric point by polyacrylamide gel electrophoresis using ampholyte; assay type: physicochemical; conditions: electrophoresis using 2 w/v % ampholyte

| Molecule | Decomposition (trehalose phosphorylase [2]) | further results |
| --- | --- | --- |
| O[C@H](CS)[C@H](O)CS (racemic) [dithiothreitol] |  | Activation and stabilization of the enzyme (trehalose phosphorylase [1]): Activated |
| OC[C@H]1O[C@H](O[C@H]2O[C@H](CO)[C@@H](O[C@H]3O[C@H](CO)[C@@H](O)[C@H](O)[C@H]3O)[C@H](O)[C@H]2O)[C@H](O)[C@@H](O)[C@@H]1O [4-O-α-D-glucosyltrehalose] | - |  |
| OC[C@H]1O[C@@H](O[C@H]2[C@H](O)[C@@H](O)C(O)O[C@@H]2CO)[C@H](O)[C@@H](O)[C@@H]1O (stereo partly drawn) [Cellobiose] | - |  |
| [Cu+2] [Cu^++] |  | Enzyme activity inhibition (trehalose phosphorylase [1]): inhibited |
| OC[C@H]1OC(O)[C@H](O)[C@@H](O)[C@@H]1O (stereo partly drawn) [D-Glucose] | - |  |
| OC[C@H]1O[C@@H](OC[C@H]2OC(O)[C@H](O)[C@@H](O)[C@@H]2O)[C@H](O)[C@@H](O)[C@@H]1O (stereo partly drawn) [Gentibiose] | - |  |
| [Hg+2] [Hg^++] |  | Enzyme activity inhibition (trehalose phosphorylase [1]): inhibited |
| OC[C@H]1O[C@H](OC[C@H]2OC(O)[C@H](O)[C@@H](O)[C@@H]2O)[C@H](O)[C@@H](O)[C@@H]1O (stereo partly drawn) [Isomaltose] | - |  |
| OC[C@H]1O[C@H](O[C@H]2C(O)O[C@H](CO)[C@@H](O)[C@@H]2O)[C@H](O)[C@@H](O)[C@@H]1O (stereo partly drawn) [Kojibiose] | - |  |
| OC[C@H]1O[C@@H](O[C@H]2[C@H](O)[C@@H](O)C(O)O[C@@H]2CO)[C@H](O)[C@@H](O)[C@H]1O (stereo partly drawn) [Lactose] | - |  |
| OC[C@H]1O[C@@H](O[C@H]2[C@H](O)[C@@H](CO)OC(O)[C@@H]2O)[C@H](O)[C@@H](O)[C@@H]1O (stereo partly drawn) [Laminaribiose] | - |  |
| OC[C@H]1O[C@H](O[C@H]2[C@H](O)[C@@H](O)[C@@H](O[C@H]3[C@H](O)[C@@H](O)[C@@H](O[C@H]4[C@H](O)[C@@H](O)[C@@H](O[C@H]5[C@H](O)[C@@H](O)C(O)O[C@@H]5CO)O[C@@H]4CO)O[C@@H]3CO)O[C@@H]2CO)[C@H](O)[C@@H](O)[C@@H]1O (stereo partly drawn) [Maltopentaose] | - |  |
| OC[C@H]1O[C@H](O[C@H]2[C@H](O)[C@@H](O)[C@H](O)O[C@@H]2CO)[C@H](O)[C@@H](O)[C@@H]1O [Maltose] | - |  |
| OC[C@H]1O[C@H](OC[C@H]2OC(O)[C@H](O)[C@@H](O)[C@@H]2O)[C@H](O)[C@@H](O)[C@H]1O (stereo partly drawn) [Melibiose] | - |  |
| [Mg+2] [Mg^++] |  | Enzyme activity inhibition (trehalose phosphorylase [1]): inhibited |
| [Mn+2] [Mn^++] |  | Enzyme activity inhibition (trehalose phosphorylase [1]): inhibited |
| OC[C@H]1O[C@@H](O[C@H]2O[C@H](CO)[C@@H](O)[C@H](O)[C@H]2O)[C@H](O)[C@@H](O)[C@@H]1O [Neotrehalose] | - |  |
| OC[C@H]1O[C@H](O[C@H]2[C@H](O)[C@@H](CO)OC(O)[C@@H]2O)[C@H](O)[C@@H](O)[C@@H]1O (stereo partly drawn) [Nigerose] | - |  |
| [Pb+2] [Pb^++] |  | Enzyme activity inhibition (trehalose phosphorylase [1]): inhibited |
| OC[C@H]1O[C@@H](O[C@H]2C(O)O[C@H](CO)[C@@H](O)[C@@H]2O)[C@H](O)[C@@H](O)[C@@H]1O (stereo partly drawn) [Sophorose] | - |  |
| OC[C@H]1O[C@@](CO)(O[C@H]2O[C@H](CO)[C@@H](O)[C@H](O)[C@H]2O)[C@@H](O)[C@@H]1O [Sucrose] | - |  |
| OC[C@H]1O[C@H](O[C@H]2O[C@H](CO)[C@@H](O)[C@H](O)[C@H]2O)[C@H](O)[C@@H](O)[C@@H]1O [Trehalose] | + |  |
| [Zn+2] [Zn^++] |  | Enzyme activity inhibition (trehalose phosphorylase [1]): inhibited |
| O=P(O)(O)O[C@H]1O[C@H](CO)[C@@H](O)[C@H](O)[C@H]1O [α-D-glucose-1-phosphoric acid] |  | Formation of glucosyl-transferred saccharide when used as saccharide donor (trehalose phosphorylase [3]): No glucosyl-transferred saccharide was obtained |
| trehalose phosphorylase: novel thermostable trehalose phosphorylase purified from Thermoanaerobium brockii, ATCC 35047; amino acid sequence of SEQ ID NO:4 (protein) ANKTKKPIYPFEDWVIRETQFSIDTNYRNETIFTLANGYIGMRGTFEERYSGPKNTSFNGTYINGFYEIHDIVYPEGGYGFAKIGQTMLNVADSKIIKLYVDGEEFDLLQGKILFYERVLDMKKGFVERKVKWESPTGKILEVKIKRIVSLNRQHLAAISFTMQPVNFTGKIRFVSAIDGNVSNINDSEDVRVGSNLKGKVLKTIDKSVEGLKGWIVQKTQKSNFSYACAIDNVLVADSKYEVSNSLEEDGVKVIVDLEAEKGTSYTLNKFISYYTSKDFDENKLVALALEEIEKAKNDGFETIEKEQEEFLNSFWKDADVIIEGDKALQQGIRFNEFHLLQSVGRDGKTNIAAKGLTGGGYEGHYFWDSDIYIMPFFLYTKPEIAKALVMYRYNLLDAARSRAKELGHKGALYPWRTIDGPECSAYFPAGTAQYHINADIVYALKRYVEATNDVDFLYDYGCEILFETARFWEDLGAYIPLKGNKFCINCVTGPDEYTALVDNNAYTNYMAKMNLEYAYDIANKMKKEVPQKYQKVASKLNLKDEEIVAWKKAADNMYLPYSKELDIIPQDDSFLYKERITVDEIPEDQFPLLLHWHYLNIYRYQICKQPDVLLLMFLQREKFTKDELKKNYDYYEPITTHDSSLSPAIFSILANEIGYTDKAYKYFMMTARMDLDDYNDNVKDGIHAASMAGTWSAVVNGFGGMRVYTNELHFEPRLPKEWNLLSFNVRYKGRKINVKLTKENVVFALLEGEPIEIYYFDKKILLEKGEIK |  | Optimum pH ([4]; incubated at 60° C. for 30 min): 7.0-7.5; Optimum temperature ([4]; incubated at pH 7.0 for 30 min): about 70 °C; Specific activity ([4]; purified enzyme specimen, trehalose substrate, 60° C., pH 7.0): 78.2 units/mg protein; Thermal stability ([5]; 10 mM phosphate buffer pH 7.0, one hour): up to 60 °C; pH stability ([5]; 4° C. for 24 hours): 6.0-9.0; Isoelectric point (pI) [6]: 5.4±0.5 |
